# From PMC11459959, “Discovery of new acetamide derivatives of 5-indole-1,3,4-oxadiazol-2-thiol as inhibitors of HIV-1 Tat-mediated viral transcription” (Antimicrobial Agents and Chemotherapy, 2024)
# Where two headings read alike, the source gives them in different places.
# What was measured:
# [1] = system: HIV-1NL4-3 IRES-eGFP-nef+; test: eGFP-encoding HIV-1 infection of TZM-bl cells; assay type: cell-based; details: 9, 10, 13 1.5 μM, 20, 21, 22 4 μM, seliciclib 10 µM, triptolide 5 nM, DTG 2 nM, EFV 2 nM, 2 days
# Protocol: Fig 4 (A) Comparison of the chemical structures between prominent derivatives (9, 10, and 13) and non-functional derivatives (20, 21 and 22). (B) bl-DTR cells were treated with serial dilutions of each compound upon Dox for 24 h. The activities of F-Luc and R-Luc were determined using the Dual-Glo -Luciferase assay system. (C) TZM-bl cells were infected with the HIV-1NL4-3 strain at an MOI of 1 upon treatment of compounds. At 48 h after infection, the viral infectivity and cell viability were determined as described above (Fig. 1). (D) TZM-bl cells were infected with HIV-1NL4-3 IRES-eGFP virus along with the compound treatment. Two days later, GFP-expressing cells were observed by fluorescence microscopy (100× magnification). […] At 48 h after infection, the β-gal activity indicating viral infectivity was determined using the β-gal Enzyme Assay kit. F-Luc activity and cell viability were determined as described above (Fig. 4C). (C and E) The dose-response curves show the relative activity compared with that of the DMSO vehicle (mean ± SD; n = 3).
# [2] = system: Tat-mediated LTR transcription; test: Dual-reporter assay, F-Luc (Tat-mediated LTR transcription) in bl-DTR cells; assay type: cell-based, HIV-1; details: for IC50: Human immunodeficiency virus 1, 24 h, read-out: IC50 of F-Luc (Tat); for inhibitory effect on Tat (in words): F-Luc
# Protocol: (§1) Fig 1 (A) (Top panel) Schematic representation of the primary compound screening using a dual-reporter system. […] (B). […] (Top graphs) bl-DTR cells (1 × 10^4) were treated with twofold serial dilutions of each compound before doxycycline (Dox) addition (final concentration, 50 ng/mL). After 24 h of treatment, the activities of firefly luciferase (F-Luc, red line) and Renilla luciferase (R-Luc, blue line) were determined using the Dual-Glo Luciferase assay system. (Bottom graphs) TZM-bl cells were treated with each indicated compound and subsequently infected with the HIV-1NL4-3 strain at a multiplicity of infection (MOI) of 1. At 48 h after infection, the viral infectivity (purple line) and cell viability (green line) were determined using the Bright-Glo luciferase assay kit and the PrestoBlue Cell Viability Reagent, respectively. […] (C). […] The targeted moieties for the SAR study are marked with dotted-circle lines.
# (§2) The Tzm-bl-derived dual Tat reporter; TZM-bl/Tat/Rluc (bl-DTR) cells were established from TZM-bl cells using two Dox-inducible lentiviral expression cassettes cloned with Flag-tagged Tat86 and the R-Luc gene, as described in our previous study ([11]). TZM-bl, A3.01, J1.1, and J-Lat 6.3 cells as well as the HIV-1 molecular clone pNL4-3, pNL(AD8), ARV-resistant HIV-1 strains, and HIV-1NL43-IRES-eGFP (pBR43IeG-nef^+, gifted by Dr. Frank Kirchhoff) ([52]) were provided by the National Institute of Health HIV Reagent Program (NIH, Bethesda, MD, USA). HeLa (CCL-2) and 293T (CRL-3216) cell lines were purchased from the American Type Culture Collection (ATCC, Manassas, VA, USA). The bl-DTR, TZM-bl, HeLa, and 293T cells were cultured in Dulbecco’s modified Eagle’s medium supplemented with 1% penicillin–streptomycin and 10% (vol/vol) heat-inactivated fetal bovine serum (all from Gibco-BRL, Gaithersburg, MD, USA), and 1 µg/mL of puromycin and 200 µg/mL of zeocin were additionally supplemented for the bl-DTR cells. PBMCs were purchased from AllCells (Alameda, CA, USA) and cultured as previously described ([12]). The information on ARV-resistant HIV-1 strains was described in previous reports as follows: NNRTI-resistant 12241 and 12243 ([53]); NRTI-resistant 7396, 7406, and 7407 ([54]); INSTI-resistant 11847 and 11849 ([55], [56]); and PI-resistant 11800 and 11803 ([57]). Each molecular HIV-1 clone was transfected to 293T cells, as previously described ([58]), to obtain infectious HIV-1 particles. Virus-containing cell culture supernatants were collected 3 days after transfection, and filtered through a 0.45-µm membrane filter (Millipore Sigma, Burlington, MA, USA) to remove cell debris. The viral titration was performed as described previously ([59]) with some minor modifications. In brief, 1 × 10^4 TZM-bl cells seeded in 96-well plates were infected with 200 µL of virus-containing medium diluted serially twofold. The incubation was for 2 days and the experiment was performed in triplicate; the infection time minimized the virus spread ([59]). The titration of the infectious viral particles was performed with a ß-Gal staining assay using the ßeta-Galactosidase Staining Kit (Mirus Bio, Madison, WI, USA) following the manufacturer’s protocols. In brief, the infected cells were washed with phosphate-buffered saline (PBS) and fixed using a Cell Fixative Working solution. The cells were washed with PBS and stained using the Cell Staining Working Solution containing X-gal. The infected blue-colored cells were counted under a microscope (100× magnification). The infectious virus titer was determined as a mean value of blue-colored cells count × dilution factor and used for determining the multiplicity of infection (MOI) in each infection experiment.
# [3] = system: general cellular transcription/translation (R-Luc); test: Dual-reporter assay, R-Luc in bl-DTR cells; assay type: cell-based; details: doxycycline, 24 h
# Protocol: as §1, §2
# [4] = system: HIV-1NL4-3; test: HIV-1 infectivity in TZM-bl cells (F-Luc); assay type: cell-based; details: for EC50: Human immunodeficiency virus 1, TZM-bl, 48 h, TZM-bl cells infected with HIV-1NL4-3 at MOI 1, 48 h, F-Luc, mean ± SD; for SI (CC50/EC50) / inhibitory effect on HIV-1 infection (in words): TZM-bl cells; for inhibitory effect on HIV-1 infection (in words): HIV-1NL4-3
# [5] = Cell viability of TZM-bl cells (PrestoBlue); assay type: cell-based; details: human
# Protocol: The TZM-bl cells (also referred to as JC53BL-13) expressing human CD4, CXCR4, and CCR5 carrying the F-Luc and lacZ genes downstream of the HIV-1 LTR promoter ([60]) were used to determine the inhibitory effect of the compounds on HIV-1 infection, as previously described ([11], [12], [61]). In brief, 1 × 10^4 cells were cultured in 96-well plates for 24 h and subsequently treated with compounds at the indicated concentrations. Without replacement of the culture medium, the cells were subsequently infected with the HIV-1NL4-3 wild-type or ARV-resistant HIV-1 strains at an MOI of 1 to determine the exact inhibitory effect of compounds on a single-round infection. After 48 h, the inhibitory effect of the compounds was determined using a Bright Glo luciferase assay kit (Promega) or β-Galactosidase Enzyme Assay kit (Promega). The infectivity data were presented as a percentage relative to the dimethyl sulfoxide (DMSO) control (vehicle). Cell viability was determined using the resazurin-based PrestoBlue Cell Viability Reagent (Thermo Fisher Scientific, Waltham, MA, USA) following the manufacturer’s instructions.
Molecule,IC50 [2],Relative R-Luc activity at IC50 of F-Luc [3],EC50 ([4]; read-out: EC50),SI (CC50/EC50) [4],CC50 at 48 h [5],inhibitory effect on Tat (in words) ([2]; bl-DTR cells),inhibitory effect on HIV-1 infection (in words) [4],further results
"Cc1[nH]c2ccc(-c3nnc(S(=O)(=O)CC(=O)N4CCCC4)o3)cc2c1C [Compound 22, 2-((5-(2,3-Dimethyl-1H-indol-5-yl)-1,3,4-oxadiazol-2-yl)sulfonyl)-1-(pyrrolidin-1-yl)ethan-1-one]",–,–,–,–,–,–,–,inhibition of viral-expressed eGFP signal [1]: did not
"Cc1[nH]c2ccc(-c3nnc(SCCC(=O)O)o3)cc2c1C [Compound B, 3-((5-(2,3-Dimethyl-1H-indol-5-yl)-1,3,4-oxadiazol-2-yl)thio)propanoic acid]",2.29 ± 0.08 µM,>100,2.63 ± 0.34 µM,16.97,44.6 ± 5.68 µM,–,–,–
"Cc1[nH]c2ccc(-c3nnc(SCCN4CCCCC4)o3)cc2c1C [Compound 24, 2-(2,3-Dimethyl-1H-indol-5-yl)-5-((2-(piperidin-1-yl)ethyl)thio)-1,3,4-oxadiazole]",1.97 ± 0.03 µM,>100,3.02 ± 0.09 µM,13.34,40.3 ± 1.74 µM,modest inhibitory effect,–,–
"Cc1[nH]c2ccc(-c3nnc(SCC(=O)N4CCCC4)n3CCc3ccccc3)cc2c1C [Compound 31, 2-((5-(2,3-Dimethyl-1H-indol-5-yl)-4-phenethyl-4H-1,2,4-triazol-3-yl)thio)-1-(pyrrolidin-1-yl)ethan-1-one]",3.42 ± 0.12 µM,>100,5.89 ± 0.05 µM,9.39,55.3 ± 10.2 µM,–,–,–
"Cc1[nH]c2ccc(-c3nnc(SCCN4CCCC4)o3)cc2c1C [Compound 25, 2-(2,3-Dimethyl-1H-indol-5-yl)-5-((2-(pyrrolidin-1-yl)ethyl)thio)-1,3,4-oxadiazole]",–,–,–,–,–,no effect was observed,no effect was observed,–
"Cc1[nH]c2ccc(-c3nnc(SCC(=O)N4CCCCC4)n3C)cc2c1C [Compound 28, 2-((5-(2,3-Dimethyl-1H-indol-5-yl)-4-methyl-4H-1,2,4-triazol-3-yl)thio)-1-(piperidin-1-yl)ethan-1-one]",13.7 ± 0.53 µM,90,21.2 ± 1.47 µM,1.74,36.8 ± 12.6 µM,critical decrease of potency,critical decrease of potency,–
"Cc1[nH]c2ccc(-c3nnc(SC(C)(C)C(=O)N4CCCCC4)o3)cc2c1C [Compound 12, 2-((5-(2,3-Dimethyl-1H-indol-5-yl)-1,3,4-oxadiazol-2-yl)thio)-2-methyl-1-(piperidin-1-yl)propan-1-one]",–,–,–,–,–,increased,increased,–
"Cc1[nH]c2ccc(-c3nnc(SC(C)C(=O)N4CCCCC4)o3)cc2c1C (stereo not shown) [Compound 11, 2-((5-(2,3-Dimethyl-1H-indol-5-yl)-1,3,4-oxadiazol-2-yl)thio)-1-(piperidin-1-yl)propan-1-one]",0.43 ± 0.03 µM,100,0.4 ± 0.05 µM,67.85,27.1 ± 1.95 µM,–,–,–
"Cc1[nH]c2ccc(-c3nnc(S)o3)cc2c1C [Compound 3b, 5-(2,3-Dimethyl-1H-indol-5-yl)-1,3,4-oxadiazole-2-thiol]",–,–,–,–,–,did not exhibit a substantial biological effect,did not exhibit a substantial biological effect,–
"Cc1[nH]c2ccc(-c3nnc(SC(C)C(=O)N4CCCC4)o3)cc2c1C (stereo not shown) [Compound 14, 2-((5-(2,3-Dimethyl-1H-indol-5-yl)-1,3,4-oxadiazol-2-yl)thio)-1-(pyrrolidin-1-yl)propan-1-one]",3.82 ± 0.12 µM,>100,3.31 ± 0.28 µM,17.44,57.7 ± 6.01 µM,–,–,–
"1-(Pyrrolidin-1-yl)-2-((5-(1,2,3-trimethyl-1H-indol-5-yl)-1,3,4-oxadiazol-2-yl)thio)ethan-1-one [Compound 19]",–,–,–,–,–,did not demonstrate any biological effect,did not demonstrate any biological effect,–
"CC(=O)O[C@@]12C[C@@H](C)[C@@]3(O)[C@@H](C=C(CO)C[C@]4(O)C(=O)C(C)=C[C@@H]34)[C@@H]1C2(C)C [prostratin, reference compound]",–,–,–,–,–,–,–,"LTR activity increase induced by adding prostratin ([2]; bl-DTR cells, Dox, sustained in the presence of compounds 9 or 13): ~ 1.5 fold"
"2-((5-(2,3-Dimethyl-1H-indol-5-yl)-1,3,4-oxadiazol-2-yl)thio)-1-(pyrrolidin-1-yl)propan-1-one [Compound 15]",–,–,–,–,–,increased,increased,–
"O=C(O)CCSc1nnc(-c2cccc3ccccc23)o1 [Compound A, 3-((5-(Naphthalen-1-yl)-1,3,4-oxadiazol-2-yl)thio)propanoic acid]",4 µM,–,–,–,–,–,–,EC50 [4]: 4.19 µM
"Cc1[nH]c2ccc(-c3nnc(SC(C)C(=O)N4CCCCC4)n3CCc3ccccc3)cc2c1C (stereo not shown) [Compound 30, 2-((5-(2,3-Dimethyl-1H-indol-5-yl)-4-phenethyl-4H-1,2,4-triazol-3-yl)thio)-1-(piperidin-1-yl)propan-1-one]",1.74 ± 0.06 µM,100,2.01 ± 0.11 µM,11.26,22.6 ± 0.47 µM,–,–,–
